# Test results as given in article PMC13250620.
# Columns and labels:
# [1] = Pd(0) Larock indole macrocyclisation (aryl C-Br + TES-alkyne, ArNHAc; forms Trp C3a-C3 and N1-C2 bonds); Pd(OAc)2 0.5 eq, tBu3P·HBF4 1.0 eq, DIPEA 10 eq; settings: the molecule shown is the open-chain precursor; 16-membered ring; toluene; 20.0 mM; 110.0 °C; 12.0 h; 5 steps
# [2] = Pd(0) Larock indole macrocyclisation (aryl C-Br + TES-alkyne); Pd(OAc)2 0.5 eq, tBu3P·HBF4 1.0 eq, DIPEA 10 eq for 54; 32 by previously reported procedure; settings: the molecule shown is the open-chain precursor, 110.0 °C
smiles,measurement,setting,value
"CC[Si](C#CC[C@H](NC(=O)[C@@H]1CCCN1C(=O)[C@H](Cc1ccc(F)c(-c2ccc(NC(C)=O)c(Br)c2)c1)NC(=O)OC(C)(C)C)C(=O)OC)(CC)CC [Boc-Phe(4-F, 3-(4-NHAc-3-Br-phenyl))-Pro-Pra(TES)-OMe]","ring closure, yield over several steps",[1],31%
"CC[Si](C#CC[C@H](NC(=O)OC(C)(C)C)C(=O)N[C@@H](C)C(=O)N[C@@H](CC(C)C)C(=O)N[C@@H](Cc1ccc(OC)c(-c2ccc(Br)c(N)c2)c1)C(=O)OC)(CC)CC [Boc-Pra(TES)-Ala-Leu-Tyr(OMe, 3-(3-NH2-4-Br-phenyl))-OMe]","ring closure, isolated yield","[2]; 20-membered ring;, 12.0 h",79%
"CC[Si](C#CC[C@H](NC(=O)[C@@H]1CCCN1C(=O)[C@H](Cc1ccc(OC)c(-c2ccc(NC(C)=O)c(Br)c2)c1)NC(=O)OC(C)(C)C)C(=O)OC)(CC)CC [Boc-Tyr(OMe, 3-(4-NHAc-3-Br-phenyl))-Pro-Pra(TES)-OMe]","ring closure, isolated yield",[2]; 16-membered ring;,45%
CC[Si](C#CC[C@H](NC(=O)[C@@H]1CCCN1C(=O)[C@H](Cc1cccc(-c2ccc(NC(C)=O)c(Br)c2)c1)N1C(=O)c2ccccc2C1=O)C(=O)OC)(CC)CC [Phth-Phe(3-(4-NHAc-3-Br-phenyl))-Pro-Pra(TES)-OMe],"ring closure, yield over several steps",[1],30%
"CC[Si](C#CC[C@H](NC(=O)[C@@H]1CCCN1C(=O)[C@H](Cc1ccc(C)c(-c2ccc(NC(C)=O)c(Br)c2)c1)N1C(=O)c2ccccc2C1=O)C(=O)OC)(CC)CC [Phth-Phe(4-Me, 3-(4-NHAc-3-Br-phenyl))-Pro-Pra(TES)-OMe]","ring closure, yield over several steps",[1],39%
"CC[Si](C#CC[C@H](NC(=O)[C@@H]1CCCN1C(=O)[C@H](Cc1cc(F)cc(-c2ccc(NC(C)=O)c(Br)c2)c1)N1C(=O)c2ccccc2C1=O)C(=O)OC)(CC)CC [Phth-Phe(5-F, 3-(4-NHAc-3-Br-phenyl))-Pro-Pra(TES)-OMe]","ring closure, yield over several steps",[1],23%
